Source: publication PMC7714071, “Interaction of amyloid beta with humanin and acetylcholinesterase is modulated by ATP” (FEBS Open Bio, 2020)

Key:
Aβ [1] = conditions: physiological intracellular concentrations, enhanced by magnesium; cited from earlier work
Source text: Soluble oligomers of proteins implicated in different diseases are primarily thought to be the main toxic form as opposed to the larger fibrillar assemblies. Aβ regions containing Tyr and Ser (H6DSGY10 and G25SNKG29) (Fig. 1) along with post‐translational modifications of these regions, have been implicated in misfolding, oligomerization, or fibril formation of Aβ [5, 10, 11, 16, 41]. […] In addition to ATP, the glycosaminoglycan, heparan sulfate (HS), has been previously reported to i ... || Access to the central domain of Aβ (residues 17–24) flanked by Lys‐16 and Lys‐28, known to be a critical structural element in fibrillar Aβ aggregates, might be regulated by binding of AChE and HN to their overlapping binding sites on Aβ. […] Moreover, we s ...

Aβ cytotoxicity = conditions: cited from earlier work
Source text: Almost all types of cells produce amyloid beta (Aβ), a peptide well recognized for its role in the development and progression of different stages of Alzheimer's disease (AD). The Aβ peptide is ~ 4 kDa and derived from the sequential processing of the higher molecular weight amyloid precursor protein by two membrane‐bound endoproteases, β‐ and γ‐secretase. Different C‐terminal Aβ heterogeneity results from processing by γ‐secretase, where Aβ40 represents the most abundant isoform (~ 90%) as compared to Aβ42 (~ 10%). Self‐assembled Aβ40/42 peptides into amyloid fib ... || Soluble oligomers of proteins implicated in different diseases are primarily thought to be the main toxic form as opposed to the larger fibrillar assemblies. Aβ regions containing Tyr and Ser (H6DSGY10 and G25SNKG29) (Fig. 1) along with post‐translational modifications of these regions, have been implicated in misfolding, oligomerization, or fibril formation of Aβ [5, 10, 11, 16, 41]. […] Aβ proteins a ... || Acetylcholinesterase (AChE) is an enzyme known for its role in terminating acetylcholine‐mediated neurotransmission at the synaptic cleft. The majority of the cortical AChE in the Alzheimer's brain is mainly associated with the amyloid core of senile plaques. […]

Aβ40 = conditions: versus Aβ42; cited from earlier work
Source text: Almost all types of cells produce amyloid beta (Aβ), a peptide well recognized for its role in the development and progression of different stages of Alzheimer's disease (AD). The Aβ peptide is ~ 4 kDa and derived from the sequential processing of the higher molecular weight amyloid precursor protein by two membrane‐bound endoproteases, β‐ and γ‐secretase. Different C‐terminal Aβ heterogeneity results from processing by γ‐secretase, where Aβ40 represents the most abundant isoform (~ 90%) as compared to Aβ42 (~ 10%). Self‐assembled Aβ40/42 peptides into amyloid fib ... || Humanin (HN) is a secreted 21‐ to 24‐amino acid mitochondrial‐derived peptide. Certain amino acid residues in HN have been identified to be involved in different functions, including binding to Aβ [55, 56]. […] HN was identified previously as a binding partner of Aβ, likely modulating its aggregation pathways and counteracting its deleterious effects. […] The specific epitopes at the binding interface between HN and Aβ40 were identified, by proteolytic epitope excision and extraction in addition to affinity–mass spectrometric data analysis, to be HN (5–15) and Aβ (17–28). […] Inhibiting the 17–28 region of Aβ reduced aggregation of the neurotoxic amyloid fibrils and related cytotoxicity in SH‐SY5Y, a human neuroblastoma cell ... || (+ 1 further places)

[2] = ELISA, binding of biotinylated-Aβ to immobilised HS; design: species or system bovine; conditions: HS 100 nM on wells, increasing biotinylated-Aβ; single binding site model; mean ± SD of three independent experiments in triplicate; Fig. 2A
Procedure: ELISAs were carried out as we previously reported. Nunc MaxiSorp 96‐well flat bottom plate (Thermo Fisher) wells were coated with samples as indicated. The plates were incubated overnight at 4 °C on a shaker to allow binding of the samples to the plate wells. After the incubation, the wells were washed 4× with TBST, filled with 400 µL blocking buffer (110 mM KCl, 5 mM NaHCO3, 5 mM MgCl2, 1 mM EGTA, 0.1 mM CaCl2, 20 mM HEPES, 1% BSA, pH 7.4), and incubated with shaking overnight at 4 °C. The wells were then washed 4× with TBST, and 100 µL of sample at the desired concentration was added to each well and incubated with shaking overnight at 4 °C. TBST was then used to wash the wells 4× before proceeding in one of two ways: (a) biotinylated samples were analyzed by adding 100 µL streptavidin–HRP conjugate in TBST (1 : 2500 dilution) to the samples followed by incubation for 3 h at RT on a shaker, or (b) samples without biotin were analyzed by adding 100 µL TBST containing the primary antibody as per the manufacturer's recommendation, incubating for 3 h at RT on a shaker, followed by washing the wells 4× with TBST. […] The reaction was stopped with 100 µL 2 M H2SO4 after incubating at RT for 0.5–15 min, resulting in a yellow color change, measured by absorbance at 450 nm. […] Statistical analysis was determined by the […] […] Data were expressed as the mean ± SD. […]

Aβ42 = conditions: in brains of AD patients; cited from earlier work
Source text: Almost all types of cells produce amyloid beta (Aβ), a peptide well recognized for its role in the development and progression of different stages of Alzheimer's disease (AD). The Aβ peptide is ~ 4 kDa and derived from the sequential processing of the higher molecular weight amyloid precursor protein by two membrane‐bound endoproteases, β‐ and γ‐secretase. Different C‐terminal Aβ heterogeneity results from processing by γ‐secretase, where Aβ40 represents the most abundant isoform (~ 90%) as compared to Aβ42 (~ 10%). Self‐assembled Aβ40/42 peptides into amyloid fib ... || Amino acid residues involved in direct interactions between HN and Aβ40 were identified previously by molecular modeling. The specific epitopes at the binding interface between HN and Aβ40 were identified, by proteolytic epitope excision and extraction in addition to affinity–mass spectrometric data analysis, to be HN (5–15) and Aβ (17–28). […] Inhibiting the 17–28 region of Aβ reduced aggregation of the neurotoxic amyloid fibrils and related cytotoxicity in SH‐SY5Y, a human neuroblastoma cell ... || Acetylcholinesterase (AChE) is an enzyme known for its role in terminating acetylcholine‐mediated neurotransmission at the synaptic cleft. The majority of the cortical AChE in the Alzheimer's brain is mainly associated with the amyloid core of senile plaques. […]

[3] = test system: Aβ in A549 cell-conditioned media; experiment: ELISA, oligomer versus total Aβ in A549 cell-conditioned media; type: cell-based, human; conditions: non-depleted A549 media; Fig. 8A
Procedure: (§1) Aβ ELISAs were carried out according to previous protocols for determining the oligomeric and monomeric concentrations of Aβ and as we recently reported. Briefly, total Aβ (monomers + oligomers) was measured by two‐site binding ELISAs using the capture 6E10 monoclonal antibody and 4G8‐conjugated biotin as the detection antibody, which recognizes a distinct epitope, then quantitated using streptavidin‐HRP.
(§2) Using the same samples, oligomerized Aβ was measured by a single‐site ELISA in which antibodies targeting the same primary sequence epitope were used for both capture (4G8) and detection (4G8‐biotin). Only oligomers are detected with this approach since the 4G8‐biotin antibody cannot bind to the captured monomer because the epitope is blocked by the 4G8 capture antibody. Therefore, only oligomeric or multimeric Aβ containing additional exposed 4G8 epitopes, not engaged by the capture antibody, are reported by the streptavidin–HRP. The amount of the monomer was then estimated as the difference between the concentration of total Aβ and the concentration of the oligomer.
(§3) Conditioned media were immunodepleted (ID) according to the methods previously described and our recently published report. Briefly, specific antibodies were bound to ELISA wells overnight (1 : 1000 dilution). The wells were then blocked and washed, then 300 μL of the conditioned medium (0.5 μg·μL^−1) treated as indicated, 72 h postserum starvation, was incubated with the antibodies bound to ELISA wells for 24 h. The ID media were then carefully removed and analyzed for the presence of the target protein or peptide by ELISA. The same amount of protein (3 µL of 600 µg·mL^−1 total protein) of each sample was analyzed in the experiments. Significant depletion (95–100%) was observed upon using each of the antibodies employed in this study.
(§4) Both epitopes recognized by the 6E10 and 4G8 antibodies have been previously shown to be exposed in Aβ aggregates. […] To determine the effect of ID of AChE or HN on this ratio in the absence or presence of added ATP, 0.2 × 10^5 cells per well were seeded in 96‐well plates in 10% FBS‐supplemented media. The next day, the cells were incubated in serum‐free medium for 72 h, then ID of AChE or HN as described in Materials and methods. The antibodies 6E10 or 4G8 were bound (1 : 1000 dilution) to ELISA wells (Fig. 8). The wells were blocked, and then incubated with 300 μL of the ID medium (0.5 μg·μL^−1). Biotin‐4G8 was then added and the signal processed as described in Materials and methods section. Fold change relative to controls using anti‐6E10 or anti‐4G8 antibodies incubated with 300 μL of the medium not incubated with cells was calculated.
(§5) Cells (0.2 × 10^5) were grown in 10% FBS‐supplemented media for 24 h. The cells were then incubated in serum‐free medium for 72 h without or with ATP and the media collected and ID from either HN or AChE as described in Materials and methods section. The antibodies 6E10 or 4G8 were bound (1 : 1000 dilution) to ELISA wells. The wells were blocked, and then incubated with 300 μL of the control and ID medium (0.5 μg·μL^−1). Biotin‐4G8 was then added and the signal processed as described in Materials and methods section. Fold change relative to controls using anti‐6E10 and anti‐4G8 antibodies and 300 μL of the medium not incubated with cells was calculated. Data were processed using the […] 8.4.3 software. The graphs summarize the results expressed as means ± SD of three separate experiments, each performed in triplicate. […]

[4] = test system: human lung adenocarcinoma xenografts; conditions: direct injection into xenografts; cited from earlier work
Source text: A rapidly growing body of evidence has recently steadily emerged showing that AD patients might have a reduced risk and some protection against certain cancers. […] Experimental evi ...

[5] = test system: Aβ in H1299 cell-conditioned media; experiment: ELISA, oligomer versus total Aβ in H1299 cell-conditioned media; type: cell-based, human; conditions: non-depleted H1299 media; Fig. 8B
Procedure: as §1, §2, §3, §4, §5

Aβ [6] = conditions: cited from earlier work

Nc1ncnc2c1ncn2[C@@H]1O[C@H](COP(=O)(O)OP(=O)(O)O)[C@@H](O)[C@H]1O [ADP]
effect on misfolding of Aβ (Aβ [1]): reduced misfolding of Aβ

Aβ40
toxicity relative to Aβ42 (Aβ cytotoxicity): lower toxicity
aggregation kinetics of Aβ40 (Aβ40): lower aggregation kinetics
binding affinity of Aβ for HS [2]: comparable affinities

Aβ42
binding affinity of Aβ for HS [2]: comparable affinities
aggregation kinetics of Aβ42 (Aβ42): faster aggregation kinetics

amyloid beta [Aβ]
oligomer relative to total Aβ [3]: ~ 63%
tumor growth [4]: suppress tumor growth in mice
oligomer relative to total Aβ [5]: ~ 48%

biotinylated‐HN
binding of biotinylated-HN to Aβ versus HN (Aβ [6]): indistinguishable
